# Assay results taken from patent publication US11384055B2 (BIOMARIN PHARMACEUTICAL INC., priority 2017, dated 2022).
# pIC50: −log10 of the molar value.
# Biological target: T1, Human GO (Homo sapiens, UniProt Q9UJM8)
# T1 construct: purchased Novus Biologicals NBP1-72412
# T1 sequence (Q9UJM8 1-370): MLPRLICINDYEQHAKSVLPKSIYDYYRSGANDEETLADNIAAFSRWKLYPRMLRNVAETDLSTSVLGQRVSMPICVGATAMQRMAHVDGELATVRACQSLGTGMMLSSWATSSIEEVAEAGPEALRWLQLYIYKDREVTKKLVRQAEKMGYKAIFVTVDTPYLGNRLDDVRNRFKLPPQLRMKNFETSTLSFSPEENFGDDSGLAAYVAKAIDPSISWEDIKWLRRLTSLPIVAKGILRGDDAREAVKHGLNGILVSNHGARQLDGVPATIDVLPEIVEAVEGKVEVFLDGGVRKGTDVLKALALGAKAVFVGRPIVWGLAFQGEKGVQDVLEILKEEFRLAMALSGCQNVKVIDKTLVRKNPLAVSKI
# Assay: GO enzymatic assay (coupled fluorescence/HRP assay, glycolate substrate)
# Assay type: biochemical
# Settings: not given
# Method in brief: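 Coupled HRP/fluorescence read-out of glycolate oxidation by human GO in 50 mM potassium phosphate buffer (pH 7). Inhibitors added across a concentration range.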
row,pIC50,Structure (SMILES)
1,> 7.00,"O=C(O)c1[nH]nnc1Oc1ccc(C2CCCCC2)cc1 [Compound 273, 4-(4-cyclohexylphenoxy)-1H-1,2,3-triazole-5-carboxylic acid]"

# Same assay, conditions: Table 2; read-out: Range (range of IC50 values calculated from the enzymatic assays)
row,pIC50,Structure (SMILES)
1,5.00 to 6.00,"CC(C)C(=O)OCOC(=O)c1[nH]nnc1Sc1ccc(-c2ccc(N3CCCCC3)cc2)cc1 [Compound 244, (isobutyryloxy)methyl 4-((4′-(piperidin-1-yl)-[1,1′-biphenyl]-4-yl)thio)-1H-1,2,3-triazole-5-carboxylate]"
2,5.00 to 6.00,"CC(C)N1CCCc2ccc(Oc3nn[nH]c3C(=O)O)cc21 [Compound 245, 4-((1-isopropyl-1,2,3,4-tetrahydroquinolin-7-yl)oxy)-1H-1,2,3-triazole-5-carboxylic acid 2,2,2-trifluoroacetate]"
3,6.00 to 7.00,"CN1CCN(c2cccc(-c3ccc(Oc4nn[nH]c4C(=O)O)cc3)c2)CC1 [Compound 246, 4-((3′-(4-methylpiperazin-1-yl)-[1,1′-biphenyl]-4-yl)oxy)-1H-1,2,3-triazole-5-carboxylic acid 2,2,2-trifluoroacetate]"
4,> 7.00,"O=C(O)c1[nH]nnc1Sc1ccc(-c2cccc(C3CCCCC3)c2)cc1 [Compound 247, 4-((3′-cyclohexyl-[1,1′-biphenyl]-4-yl)thio)-1H-1,2,3-triazole-5-carboxylic acid]"
5,5.00 to 6.00,"O=C(OCOC(=O)c1[nH]nnc1Oc1ccc2cc(Cl)ccc2c1)c1ccccc1 [Compound 249, (benzoyloxy)methyl 4-((6-chloronaphthalen-2-yl)oxy)-1H-1,2,3-triazole-5-carboxylate]"
6,> 7.00,"O=C(O)c1[nH]nnc1Oc1ccc(-c2ccc3cccnc3c2)cc1 [Compound 250, 4-(4-(quinolin-7-yl)phenoxy)-1H-1,2,3-triazole-5-carboxylic acid 2,2,2-trifluoroacetate]"
7,5.00 to 6.00,"CC(C)(C)C(=O)OCOC(=O)c1[nH]nnc1Oc1ccc2cc(Cl)ccc2c1 [Compound 251, (pivaloyloxy)methyl 4-((6-chloronaphthalen-2-yl)oxy)-1H-1,2,3-triazole-5-carboxylate]"
8,6.00 to 7.00,"CC(C)C(=O)OCOC(=O)c1[nH]nnc1Oc1ccc2c(c1)CCCC2 [Compound 252, (isobutyryloxy)methyl 4-((5,6,7,8-tetrahydronaphthalen-2-yl)oxy)-1H-1,2,3-triazole-5-carboxylate]"
9,> 7.00,"O=C(O)c1[nH]nnc1Oc1cccc(OC2CC2)c1 [Compound 253, 4-(3-cyclopropoxyphenoxy)-1H-1,2,3-triazole-5-carboxylic acid 2,2,2-trifluoroacetate]"
10,> 7.00,"O=C(O)c1[nH]nnc1Oc1ccc(Cl)c(OC(F)(F)F)c1 [Compound 254, 4-(4-chloro-3-(trifluoromethoxy)phenoxy)-1H-1,2,3-triazole-5-carboxylic acid]"
11,> 7.00,"CC(=O)NCCOc1ccc(-c2ccc(Oc3nn[nH]c3C(=O)O)cc2)cc1 [Compound 255, 4-((4′-(2-acetamidoethoxy)-[1,1′-biphenyl]-4-yl)oxy)-1H-1,2,3-triazole-5-carboxylic acid]"
12,6.00 to 7.00,"CC(C)C(=O)OCOC(=O)c1[nH]nnc1OC1CCc2cc(Cl)c(Cl)cc2C1 (centres unmarked) [Compound 256, (isobutyryloxy)methyl 4-((6,7-dichloro-1,2,3,4-tetrahydronaphthalen-2-yl)oxy)-1H-1,2,3-triazole-5-carboxylate]"
13,> 7.00,"O=C(O)c1[nH]nnc1Oc1ccc(-c2ccc3cnccc3c2)cc1 [Compound 257, 4-(4-(isoquinolin-6-yl)phenoxy)-1H-1,2,3-triazole-5-carboxylic acid]"
14,5.00 to 6.00,"CC(C)(C)C(=O)OCOC(=O)c1[nH]nnc1OC1CCc2cc(Cl)c(Cl)cc2C1 (centres unmarked) [Compound 258, (pivaloyloxy)methyl 4-((6,7-dichloro-1,2,3,4-tetrahydronaphthalen-2-yl)oxy)-1H-1,2,3-triazole-5-carboxylate]"
15,> 7.00,"CC(=O)NCCOc1cccc(-c2ccc(Oc3nn[nH]c3C(=O)O)cc2)c1 [Compound 259, 4-((3′-(2-acetamidoethoxy)-[1,1′-biphenyl]-4-yl)oxy)-1H-1,2,3-triazole-5-carboxylic acid]"
16,6.00 to 7.00,"O=C(O)c1[nH]nnc1OC1CCN(c2ccc3cnccc3c2)CC1 [Compound 260, 4-((1-(isoquinolin-6-yl)piperidin-4-yl)oxy)-1H-1,2,3-triazole-5-carboxylic acid 2,2,2-trifluoroacetate]"
17,5.00 to 6.00,"O=C(OCOC(=O)c1[nH]nnc1OC1CCc2cc(Cl)c(Cl)cc2C1)c1ccccc1 (centres unmarked) [Compound 261, (benzoyloxy)methyl 4-((6,7-dichloro-1,2,3,4-tetrahydronaphthalen-2-yl)oxy)-1H-1,2,3-triazole-5-carboxylate]"
18,> 7.00,"O=C(O)c1[nH]nnc1Oc1cccc(OCC2CC2)c1 [Compound 262, 4-(3-(cyclopropylmethoxy)phenoxy)-1H-1,2,3-triazole-5-carboxylic acid 2,2,2-trifluoroacetate]"
19,> 7.00,"O=C(O)c1[nH]nnc1Oc1ccc(C2CCOCC2)cc1 [Compound 263, 4-(4-(tetrahydro-2H-pyran-4-yl)phenoxy)-1H-1,2,3-triazole-5-carboxylic acid 2,2,2-trifluoroacetate]"

row,pIC50,Structure (SMILES)
1,> 7.00,"O=C(O)c1[nH]nnc1COc1ccc(Cl)c(Cl)c1 [Compound 264, 4-((3,4-dichlorophenoxy)methyl)-1H-1,2,3-triazole-5-carboxylic acid 2,2,2-trifluoroacetate]"
2,> 7.00,"O=C(O)c1[nH]nnc1COc1ccc(-c2ccc(OC(F)(F)F)cc2)cc1 [Compound 265, 4-(((4′-(trifluoromethoxy)-[1,1′-biphenyl]-4-yl)oxy)methyl)-1H-1,2,3-triazole-5-carboxylic acid]"
3,> 7.00,"O=C(O)c1[nH]nnc1COc1ccc(-c2ccc(Cl)c(Cl)c2)cc1 [Compound 266, 4-(((3′,4′-dichloro-[1,1′-biphenyl]-4-yl)oxy)methyl)-1H-1,2,3-triazole-5-carboxylic acid 2,2,2-trifluoroacetate]"
4,> 7.00,"CCC(=O)OCOC(=O)c1[nH]nnc1OC1CCc2cc(Cl)c(Cl)cc2C1 (centres unmarked) [Compound 267, (propionyloxy)methyl 4-((6,7-dichloro-1,2,3,4-tetrahydronaphthalen-2-yl)oxy)-1H-1,2,3-triazole-5-carboxylate]"
5,> 7.00,"O=C(O)c1[nH]nnc1Oc1ccc(C2CC(F)(F)C2)cc1 [Compound 268, 4-(4-(3,3-difluorocyclobutyl)phenoxy)-1H-1,2,3-triazole-5-carboxylic acid]"
6,> 7.00,"O=C(O)c1[nH]nnc1OCc1ccc(Cl)c(Cl)c1 [Compound 269, 4-((3,4-dichlorobenzyl)oxy)-1H-1,2,3-triazole-5-carboxylic acid]"
7,> 7.00,"O=C(O)c1[nH]nnc1OC1CCN(c2ccc(Cl)cc2)CC1 [Compound 270, 4-((1-(4-chlorophenyl)piperidin-4-yl)oxy)-1H-1,2,3-triazole-5-carboxylic acid 2,2,2-trifluoroacetate]"
8,> 7.00,"O=C(O)c1[nH]nnc1OC1Cc2cc(F)c(F)cc2C1 [Compound 271, 4-((5,6-difluoro-2,3-dihydro-1H-inden-2-yl)oxy)-1H-1,2,3-triazole-5-carboxylic acid]"
9,> 7.00,"O=C(O)c1[nH]nnc1OCc1ccc(-c2ccc(OC(F)(F)F)cc2)cc1 [Compound 274, 4-((4′-(trifluoromethoxy)-[1,1′-biphenyl]-4-yl)methoxy)-1H-1,2,3-triazole-5-carboxylic acid]"
10,> 7.00,"O=C(O)c1[nH]nnc1OC1CCC(c2ccc(OC(F)(F)F)cc2)C1 (centres unmarked) [Compound 275, 4-((3-(4-(trifluoromethoxy)phenyl)cyclopentyl)oxy)-1H-1,2,3-triazole-5-carboxylic acid]"
11,> 7.00,"O=C(O)c1[nH]nnc1SC1CCc2cc(Cl)c(Cl)cc2C1 (centres unmarked) [Compound 277, 4-((6,7-dichloro-1,2,3,4-tetrahydronaphthalen-2-yl)thio)-1H-1,2,3-triazole-5-carboxylic acid]"
12,5.00 to 6.00,"O=C(OCOC(=O)c1[nH]nnc1Sc1ccc(-c2ccc(N3CCCCC3)cc2)cc1)c1ccccc1 [Compound 278, (benzoyloxy)methyl 4-((4′-(piperidin-1-yl)-[1,1′-biphenyl]-4-yl)thio)-1H-1,2,3-triazole-5-carboxylate]"
13,> 7.00,"O=C(O)c1[nH]nnc1Oc1ccc(C2CCC(F)(F)CC2)cc1 [Compound 279, 4-(4-(4,4-difluorocyclohexyl)phenoxy)-1H-1,2,3-triazole-5-carboxylic acid]"
14,> 7.00,"O=C(O)c1[nH]nnc1OC1CCC2(CC1)CC2 [Compound 280, 4-(spiro[2.5]octan-6-yloxy)-1H-1,2,3-triazole-5-carboxylic acid 2,2,2-trifluoroacetate]"
15,6.00 to 7.00,"CC1(C)CCCc2cc(Oc3nn[nH]c3C(=O)O)ccc21 [Compound 281, 4-((5,5-dimethyl-5,6,7,8-tetrahydronaphthalen-2-yl)oxy)-1H-1,2,3-triazole-5-carboxylic acid]"
16,> 7.00,"O=C(O)c1[nH]nnc1OC1Cc2ccc(OC(F)(F)F)cc2C1 (centres unmarked) [Compound 282, 4-((5-(trifluoromethoxy)-2,3-dihydro-1H-inden-2-yl)oxy)-1H-1,2,3-triazole-5-carboxylic acid]"
17,> 7.00,"O=C(O)c1[nH]nnc1OC1CCC2(CCCCC2)CC1 [Compound 283, 4-(spiro[5.5]undecan-3-yloxy)-1H-1,2,3-triazole-5-carboxylic acid]"
18,> 7.00,"O=C(O)c1[nH]nnc1OC1CCC2(CCCC2)CC1 [Compound 284, 4-(spiro[4.5]decan-8-yloxy)-1H-1,2,3-triazole-5-carboxylic acid]"
